Drawing on ChEMBL document CHEMBL1155069, “Beta-ketophosphonates as beta-lactamase inhibitors: Intramolecular cooperativity between the hydrophobic subsites of a class D beta-lactamase” (Bioorg Med Chem, 2008), this text covers Ki for 12 compounds.

A short description of test [1]: Inhibition of Escherichia coli OXA1 class D beta-lactamase by spectrophotometry.
Test [2] in a line: Inhibition of Enterobacter cloacae P99 class C beta-lactamase by spectrophotometry.
Test [3] can be described thus: Inhibition of Escherichia coli TEM2 class A beta-lactamase by spectrophotometry.
Test [4] is described as follows: Inhibition of Escherichia coli OXA10 class D beta-lactamase by spectrophotometry.

What is called Ki is the dissociation constant of the complex between target and ligand, obtained from inhibition or displacement. On to `O=C(CP(=O)(O)OCc1ccccc1)c1nc2ccccc2s1`, for which the results for the Ki in test [1], in test [2] and in test [3] were 170 µM, 24 µM and 3600 µM, respectively.

As for `O=C(CP(=O)(O)OCc1ccc(-c2ccccc2)cc1)c1ccc(-c2ccccc2)cc1`, the values for the Ki in test [1], in test [2] and in test [4] were 6 µM, 74 µM and 200 µM, respectively.

For the compound `O=C(CP(=O)(O)OCc1ccccc1)c1ccc(-c2ccccc2)cc1`, the Ki is 230 µM in test [1], 190 µM in test [2], more than 1000 µM in test [4] and more than 1000 µM in test [3].

Consider `O=C(CP(=O)(O)Oc1ccccc1)c1ccc(-c2ccccc2)cc1`, for which the Ki turned out to be 140 µM in test [1], 100 µM in test [2] and 920 µM in test [3].

In the case of `O=C(CP(=O)(O)OCc1ccccc1)c1ccc2[nH]c(=O)oc2c1`, the Ki stood at 270 µM in test [1], 70 µM in test [2] and 1500 µM in test [3].

As to `Cc1onc(-c2ccccc2Cl)c1C(=O)CP(=O)(O)OCc1ccccc1`, the Ki in test [1] was 430 µM; in test [2], more than 1000 µM; in test [3], more than 1000 µM.

Turning to `O=C(CP(=O)(O)OCc1ccc(-c2ccccc2)cc1)c1ccccc1`, the values for the Ki in test [1] and in test [4] were 200 µM and more than 1000 µM, respectively.

Regarding `O=P(O)(CC(O)c1ccccc1)OCc1ccccc1` (racemic), the values for the Ki in test [1], in test [2] and in test [3] were 440 µM, 1080 µM and more than 1000 µM, respectively.

As for `O=P(O)(CC(O)c1ccc(-c2ccccc2)cc1)OCc1ccccc1` (racemic), the Ki is 300 µM in test [1], 260 µM in test [2] and more than 1000 µM in test [3].

Consider `O=C(CP(=O)(O)OCc1ccccc1)c1ccccc1` [SODIUM BENZYL PHENACYLPHOSPHONATE], for which the Ki in test [1] was 640 µM; in test [2], 670 µM; in test [4], more than 1000 µM; in test [3], 150 µM.

For `O=C(CP(=O)(O)Oc1ccccc1)c1c(F)c(F)c(F)c(F)c1F` [SODIUM PHENYL PENTAFLUOROPHENACYLPHOSPHONATE], the Ki is 380 µM in test [1], 350 µM in test [2], more than 1000 µM in test [4] and 475 µM in test [3].

On to `O=C(CP(=O)(O)Oc1ccccc1)c1ccccc1` [SODIUM PHENYL PHENACYLPHOSPHONATE], for which the Ki was 1050 µM in test [1], 200 µM in test [2] and more than 1000 µM in test [4].
